Reference: patent US20160279204A1, “PEPTIDES AND PHARMACEUTICAL COMPOSITIONS FOR USE IN THE TREATMENT BY NASAL ADMINISTRATION OF PATIENTS SUFFERING FROM ANXIETY AND SLEEP DISORDERS” (MAX-PLANCK-GESELLSCHAFT ZUR FÖRDERUNG DER WISSENSCHAFT E.V., priority 2011, published 2016)
“Also recorded” adds a separate entry of the source.

How the values were obtained:
Type in all cases: in vivo, mouse
C57BL/6N mice [1] = experiment: Dark-light test after bilateral NPS injection into CA1 of the VH; conditions: 0.1 nmol NPS each side into CA1 of VH, 30 min
Description: (§1) Animals were fixed in a stereotactic frame and maintained under isoflurane anesthesia (Forene® 100%, V/V; induction: 2.5%; maintenance: 1.5%; in O2; flow rate: 1 L/min). The mice received acute analgesic treatment with Metacam s.c. during surgery (0.5 mg/kg; in NaCl). 23 gauge stainless-steel guide cannulas were implanted in the CA1 region of the VH at the following coordinates: 3.1 mm posterior, ±3 mm lateral from bregma, and 2 mm ventral from the skull surface (Franklin and Paxinos, 2007). The guide cannulas were fixed with two screws and a two-component adhesive. For behavioural experiments, animals were implanted bilaterally for later bilateral injection, whereas for Cy3-NPS injections, implantation was performed unilaterally. The animals were allowed to recover for at least 6 days before starting the behavioural experiments. Substance infusions were carried out manually, on mice anesthetised by brief inhalation of isoflurane, using a 30 gauge injection cannula connected to a Tygon tube and a 10 μL Hamilton syringe. […]
(§2) Mice were injected bilaterally either with 0.1 nmol NPS in 0.5 μL ACSF for each side or with 0.5 μL of ACSF for each side. […] Animal behaviour was videotaped and relevant parameters were analysed using the tracking software ANY-maze version 4.30 (Stoelting, Wood Dale, Ill., USA). […]

C57BL/6N mice [2] = experiment: Open field after bilateral NPS injection into CA1 of the VH; conditions: 0.1 nmol NPS each side into CA1 of VH, 30 min
Description: as §1, §2

[3] = test system: GluR1, GluR2, Glt-1, synapsin; experiment: Immunoblotting of prefrontal cortex and hippocampus lysates after intranasal NPS; conditions: 24 hrs after intranasal NPS
Description: (§3) Behavioural tests (open field, dark-light test and elevated plus maze (EPM)) following intranasal NPS application were performed sequentially. Each test lasted for 5 min with an inter-test interval of 5 min, as described previously (Bunck et al., 2009; Krömer et al., 2005). The animals' behaviour during testing was videotaped and relevant parameters were analysed with the tracking software ANY-maze version 4.30 (Stoelting, Wood Dale, Ill., USA). Native NPS (1 μg/μL) or vehicle (Ringer solution) were administered intranasally to the alert mouse as described above (total volume: 14 μL). Mice were tested 30 min and 4 hrs after intranasal administration of first drop. Animals were sacrificed 24 hrs after treatment and prefrontal cortex and bilateral hippocampi were prepared immediately and shock-frozen in methylbutane.
For immunoblotting, proteins were extracted from aforementioned two brain regions (prefrontal cortex and bilateral hippocampi). Quantitative blot analysis was performed using ImageJ software (http://rsbweb.nih.gov/ij/; Rasband, W. S., ImageJ, U.S. National Institutes of Health). Primary antibodies used: Glt-1, Glu-R1, Glu-R2 (all 1:100; all from Santa Cruz Biotechnology, Santa Cruz, Calif., USA), synapsin (1:2000; Synaptic Systems, Goettingen, Germany) and GAPDH (1:2000, Santa Cruz Biotechnology, Santa Cruz, Calif., USA). Secondary antibodies used: donkey anti-goat IgG-HRP (1:10000; Santa Cruz Biotechnology, Santa Cruz, Calif., USA), goat anti-rabbit IgG-HRP (1:7500, Sigma-Aldrich, St. Louis, Mo., USA) and goat anti-mouse IgG-HRP (1:25000, Sigma-Aldrich, St. Louis, Mo., USA).

Bl6 and HAB mice = experiment: Open field after intranasal NPS
Description: as §3
After having ascertained that nasally administered NPS reaches its target cells, anxiolytic effects of NPS were established for this transnasal delivery method. For this purpose, nasally 6.36 nmol NPS per mouse was administered to two mouse strains, Bl6 and HAB (high anxiety behaviour) mice. HAB animals, a mouse strain inbred for pathologically high anxiety, were chosen together with Bl6 mice to allow differentiation between the temporary condition of state anxiety and the general condition of trait anxiety (Bunck et al., 2009; Kromer et al., 2005). To accurately characterise the anxiety-relieving properties of NPS in these two mouse strains, three standardised behavioural assays measuring anxiolytic effects at two different time points after intranasal NPS administration were performed. In each test, the effects of intranasal NPS versus vehicle treatment on both anxiety- and locomotion-related indices were examined.

neuropeptide S (SFRNGVGSGVKKTSFRRAKQ; Neuropeptide S; UniProt P0C0P7 70-89, looked up) [NPS, peptide agonist of neuropeptide S receptor (NPSR); native NPS, rat, from Bachem]
anxiety- and locomotion-related behaviour in the dark-light test (C57BL/6N mice [1]): did not affect locomotion; also recorded: not altered | distance traveled / locomotion in the open field (C57BL/6N mice [2]): did not affect locomotion; also recorded: not changed | synapsin expression ([3]; Bl6 mice, hippocampus versus prefrontal cortex): significantly increased in the hippocampus only | GluR1, GluR2 and Glt-1 expression ([3]; Bl6 mice, hippocampus): remained unaffected | Glt-1 expression level ([3]; Bl6 mice, prefrontal cortex): significantly increased | GluR1 expression level ([3]; Bl6 mice, prefrontal cortex): significantly increased | GluR2 expression ([3]; Bl6 mice, prefrontal cortex): remained unchanged | protein expression changes in the hippocampus ([3]; HAB mice, hippocampus): no corresponding changes | Glt-1 levels ([3]; HAB mice, prefrontal cortex): remained unchanged | GluR1 expression ([3]; HAB mice, prefrontal cortex): not affected | GluR2 expression ([3]; HAB mice, prefrontal cortex): significantly increased | behavioural differences versus vehicle in open field (Bl6 and HAB mice; Bl6 and HAB mice, intranasal 6.36 nmol per mouse, 30 min): no behavioural differences | any parameter examined in the open field (Bl6 and HAB mice; Bl6 mice, intranasal, 4 hrs): no effect | any parameter tested in the open field (Bl6 and HAB mice; HAB mice, intranasal, 4 hrs): no differences
